Measurements as given in patent publication US8258119B2, “Anti-cancer drugs and uses relating thereto for metastatic malignant melanoma and other cancers” (Kasina Laila Innova Pharmaceuticals, priority 2008, dated 2012).
Converted amounts (≈) assume the structure as drawn.

How the values were obtained:
[1] = system: A2058, human malignant melanoma cells; experiment: MTT cell proliferation assay in A2058 cells; type: cell-based; conditions: A2058, 72 h, three days exposure
Description: (§1) MTT [3-(4,5-dimethylthiazol-2-yl)-2,5-diphenyltetrazolium bromide] incorporation based cell proliferation assay was performed using standard procedure with some modifications (38). The cytotoxic efficacy of the test compounds were evaluated in human malignant melanoma A2058 cells by MTT cell proliferation assay kit (Roche Applied Sciences, Germany). The assay was carried out according to the instruction provided by the vendor. Briefly, equal numbers of cells was plated in 96-well flat-bottomed plates in 100 μl of medium and were exposed to either DTIC or its derivative compounds at various concentrations up to 150 μg/ml for a period of three days. Vehicle control culture wells received only a maximum of 0.5% DMSO. Thereafter, 0.5 mg/ml of MTT reagent was added to each well and the microplate was incubated further for 4 h at 37° C. in presence of 5% CO2. Finally, the cells were solubilized by adding solubilizing solution and allowed to incubate at 37° C. overnight. After complete solubilization of the formazan crystals the absorbance was read at 540 nm in a microplate reader (BioRad, USA). The results (mean OD±SD) obtained from quadruplicate wells were used in calculation to determine the inhibition of cell proliferation (50% inhibitory concentration, IC50) of the test compounds.

[2] = system: normal human skin epithelial HS.531.sk cells; experiment: LDH leakage assay on normal skin cells (tumor selectivity); type: cell-based; conditions: 120 μg/ml
Description: From the data obtained from the MTT assay (Table J), compound 1, compound 6 and compound 13 have been selected and their cytotoxicity potential has been further validated in LDH leakage assay. […] Cytotoxicity potential of DTIC and its derivative compounds were evaluated by measuring the leaked lactate dehydrogenase (LDH) into the culture supernatant (LDH Cytotoxicity Detection Roche Applied Sciences, Germany). The leaked LDH is directly proportional to the cell damage done by the cytotoxic compounds. In brief, cells were treated with test compounds at various concentrations and incubated for 48 h. Vehicle control culture wells received only a maximum of 0.5% DMSO. The cell free culture supernatants were mixed with catalyst and dye solution and allowed to incubate for 15 min at room temperature. Finally, the reaction was stopped and the optical density was measured at 492 nm in a microplate reader (BioRad, USA). The results (mean OD±SD) obtained from quadruplicate wells were used in calculation to determine the cytotoxicity potential (50% of inhibitory concentration, IC50) of the test compounds. A plot of loss of cell viability as indicated by the leakage of LDH versus drug concentration is depicted in FIG. 1.
Next, to check whether the DTIC derivative compounds can selectively kill the melanoma cells without or minimally affecting the normal cells, we assessed the effect of the test compounds on normal human skin epithelial HS.531.sk cells. […] Whereas, 120 μg/ml of DTIC, compound 1, […] caused 5.8%, 4.2%, 2.4%, and 2.4% reduction in normal cell viability, respectively.

[3] = system: DU145 human prostate tumor cells; experiment: MTT cell proliferation assay in DU145 cells; type: cell-based; conditions: DU-145, read-out: 50% of inhibitory concentration, IC50 DU145
Description: as §1
(§2) Anti-tumor growth potential of Compound 1 and Compound 6 were evaluated in MCF-7 human breast tumor cells, MIA-PaCa2 human pancreas tumor cells and DU145 human prostate tumor cells by using MTT based cell proliferation studies as described earlier (example 19). The results (mean OD±SD) obtained from quadruplicate wells were used in calculation to determine the inhibition of cell proliferation (50% of inhibitory concentration, IC50) of the test compounds (Table 4).

[4] = system: MIA-PaCa2 human pancreas tumor cells; experiment: MTT cell proliferation assay in MIA-PaCa2 cells; type: cell-based; conditions: MIA PaCa-2, read-out: 50% of inhibitory concentration, IC50 MIA-PaCa2
Description: as §1, §2

[5] = system: MCF-7 human breast tumor cells; experiment: MTT cell proliferation assay in MCF-7 cells; type: cell-based; conditions: MCF7, read-out: 50% of inhibitory concentration, IC50 MCF-7
Description: as §1, §2

[6] = system: PARP cleavage in A2058 human melanoma cells; experiment: PARP cleavage Western immunoblot assay; type: cell-based; conditions: 100 μg/ml, versus DTIC at the same concentration
From the text: Proteolytic cleavage of PARP by caspases is regarded as a hallmark of apoptosis. Caspase-3 cleaves the 113-kDa PARP to generate 89- and 24-kDa polypeptides (39). Next, with an intention to evaluate the comparative apoptotic potential of DTIC and test products compound 1, compound 6 and compound 13, PARP cleavage assay has been performed on A2058 cells. PARP cleavage was estimated by using Western immunoblot assay as described earlier (40). FIG. 3 illustrates comparative efficacy of PARP cleavage by the test compounds at a fixed dose of 100 μg/ml. […] No. 3 treated A2058 cells is 56.6% more than in DTIC treated cells at the same concentration.

SMILES | melting point | IC50 [1] | other results
CN(C)/N=N/c1cc(-c2ccccc2)sc1C(=O)O [Compound 8, 3-[(dimethylamino)diazenyl]-5-phenylthiophene-2-carboxylic acid] | 162 to 166 °C | – | –
CN(C)/N=N/c1cc(-c2ccccc2)sc1C(N)=O [Compound 5, 3-[(dimethylamino)diazenyl]-5-phenylthiophene-2-carboxamide] | 220 to 222 °C | – | –
CN(C)/N=N/c1cc([N+](=O)[O-])sc1C(=O)O [Compound 7, 3-[(dimethylamino)diazenyl]-5-nitrothiophene-2-carboxylic acid] | 184 to 186 °C | – | –
Cn1nnc2sc(N)cc2c1=O [Compound 17, 6-amino-3-methylthiopheno[2,3-d]1,2,3-triazin-4-one] | 190 to 194 °C | 147 µg/mL (≈ 805 µM) | –
COc1c(C(N)=O)sc(C(N)=O)c1/N=N/N(C)C [Compound 4, 4-[(dimethylamino)diazenyl]-3-methoxythiophene-2,5-dicarboxamide] | 226 to 228 °C | – | reduction in normal cell viability [2]: 2.4%
CN(C)/N=N/c1csc(C(N)=O)c1 [Compound 12] | 128 to 130 °C | 165 µg/mL (≈ 832 µM) | –
CN(C)/N=N/c1cc([N+](=O)[O-])sc1C(N)=O [Compound 3, 3-[(dimethylamino)diazenyl]-5-nitrothiophene-2-carboxamide] | – | – | reduction in normal cell viability [2]: 2.4%; expression of cleaved subunit of PARP at 89 kDa, more than in DTIC treated cells [6]: 56.6%
Cn1nnc2cc(-c3ccccc3)sc2c1=O [Compound 18, 3-methyl-6-phenylthiopheno[3,2-d]1,2,3-triazin-4-one] | 220 to 222 °C | – | –

Now from value to compound, other results behind:

melting point | IC50 [1] | SMILES | other results
194 to 196 °C | 113 µg/mL (≈ 409 µM) | CN(C)/N=N/c1c(Br)csc1C(N)=O [Compound 2, 3-[(dimethylamino)diazenyl]-4-bromothiophene-2-carboxamide] | –
168 to 172 °C | 48.8 µg/mL (≈ 246 µM) | CN(C)/N=N/c1cscc1C(N)=O [Compound 13, 4-[(dimethylamino)diazenyl]thiophene-3-carboxamide] | –
– | 164 µg/mL (≈ 681 µM) | CN(C)/N=N/c1ccsc1C(=O)NCCN [Compound 11, N-(2-aminoethyl){3-[(dimethylamino)diazenyl](2-thienyl)}-carboxamide] | –
118 to 122 °C | 214 µg/mL (≈ 884 µM) | CN(C)/N=N/c1ccsc1C(=O)NCCO [Compound 9, {3-[(dimethylamino)diazenyl] (2-thienyl)}-N-(2-hydroxyethyl)-carboxamide] | –
98 to 102 °C | 179 µg/mL (≈ 842 µM) | CNC(=O)c1sccc1/N=N/N(C)C [Compound 10, {3-[(dimethylamino)diazenyl](2-thienyl)}-N-methylcarboxamide] | –
168 to 170 °C | 78.7 µg/mL (≈ 397 µM) | CN(C)/N=N/c1ccsc1C(N)=O [Compound 1, 3-[(dimethylamino)diazenyl]thiophene-2-carboxamide] | IC50 [3]: 153 µg/mL (≈ 773 µM); reduction in normal cell viability [2]: 4.2%; IC50 [4]: 168 µg/mL (≈ 850 µM); IC50 [5]: 130 µg/mL (≈ 657 µM)
274 to 280 °C | – | CN(C)/N=N/c1ccsc1C(=O)[O-].[K+] | –
